Assay results published in publication PMC8571378, “Reversion analysis reveals the in vivo immunogenicity of a poorly MHC I-binding cancer neoepitope” (Nature Communications, 2021).

Columns and labels:
Meth A [1] = settings: anti-CD8 antibody during the priming phase; control antibody without effect; as previously described; cited from earlier work
Excerpt: The mutation is heterozygous and the un-mutated as well as the mutated reads are detected in the transcripts. BALB/cJ bone marrow derived dendritic cells (BMDCs) pulsed with an 18-mer peptide with the mutant amino acid near the center ([…]) or un-mutated peptide ([…]), were used to immunize BALB/cJ mice. All mice were challenged with the Meth A cells, and tumor rejection was monitored (Fig. 1b upper panel).

Meth A [2] = experiment: CD4 depletion (GK1.5) in immunized, Meth A-challenged mice; format: in vivo, BALB/cJ mice
Excerpt: In order to determine if any peptides within Ccdc85c^MUT could be presented by MHC II molecules, we analyzed the interaction of H2-A^d and H2-E^d with TYIRPFETKVK, YIRPFETKVK and IRPFETKVK as well as their wild type counterparts, using a cell-surface density assay. In this assay, β-chains of H2-Ab1^d or H2-Eb1^d are expressed in fusion with the peptide of interest and the amount of cell-surface MHC II, as a measure of intrinsic stability of MHC II, is quantified in engineered conditions. The measured cell-surface MHC density correlates well with the actual affinity of the peptide to MHC II. […] This was observed when CD4 depletion was carried out during the priming phase alone (as in Supplementary Fig. 2b), or throughout the entire experiment including the effector phase (i.e. post tumor challenge).
Supplementary Fig. 2. Assessing CD4 response to Ccdc85c . a Presentation of Ccdc85cMUT and Ccdc85cWT peptides by H2-IA and H2-IE are measured by cell-surface density assay. The y-axis indicates MHC/GFP (ratio of MHC MFI to GFP MFI) for MHC II-peptide, normalized to the MHC/GFP of the negative control peptide, G9, 9-mer all-glycine. Four technical and two independent biological repeats of this experiment have been practiced. The following additional negative control peptides are used: G12 (12-mer all-glycine) and GGS12 (4x(glycine-glycine-serine). b. Naïve BALB/cJ mice were injected with 250 µg of CD4 depleting GK1.5 antibody or isotype control during the priming phase (6 days before the first immunization). Mice were immunized, as described in the Methods, with Ccdc85cMUT and were challenged with 95,000 Meth A cells. The differences between tumor growth curves […]
(1 picture or pasted object on this page, not shown here)

Meth A [3] = experiment: Tumor rejection (immunization-challenge) assay; tumor growth AUC and tumor rejection score (TRS); format: in vivo, BALB/cJ mice
Description: Each line represents tumor growth in a single mouse (n = 5 mice per group). AUC for each group is plotted in the panel on the right. Data are presented as mean ± SD. P values were calculated using 1-way ANOVA test adjusted for multiple comparisons (Tukey’s multiple comparison test). c Several truncated versions of the 18-mer Ccdc85c^MUT peptide were tested in tumor rejection assay. BALB/cJ mice were immunized and tumor challenged. Each line represents tumor growth in a single mouse. Although mice were immunized with individual peptides, the data for multiple peptides are grouped into one with the composition of the peptides shown on the right. The tumor rejection data for individual peptides are shown in Supplementary Fig. 1. Tumor rejection score (TRS) for each neoepitope is shown in the yellow box, where five represents a complete tumor protection and zero means no tumor rejection. d On the left panel, total Area Under the Curve (AUC) scores for each group in B are plotted. […] Error bars represent standard deviation (SD). […] P values were calculated using 1-way ANOVA test adjusted for multiple comparisons. […] Matched peak lists for the “heavy” and “light” ions were extracted and monitored, while only single charge y ions were plotted. See Methods for details. f Predicted (by NetMHC4.0) and measured IC50 values of the binding of candidate precise neoepitopes of Ccdc85c^MUT to K^d are shown. […] The affinities of the MS/TRS predicted neoepitopes were also measured for D^d and L^d; measured affinities were below the level of detection.
The mutation is heterozygous and the un-mutated as well as the mutated reads are detected in the transcripts. […] All mice were challenged with the Meth A cells, and tumor rejection was monitored (Fig. 1b upper panel). […]
Area under the curve (AUC) is used as a tool to measure tumor growth. Briefly, AUC was calculated by selecting “Curves & Regression” and then “Area under curve” from the “analyze” tool, using the Prism 5.0 (GraphPad). […]

DPSSTYIRPFETKVKLLD [18-mer peptide with the mutant amino acid near the center]
effect of CD8 depletion on anti-tumor activity (Meth A [1]): abrogated | effect of CD4 T cell depletion on tumor rejection (Meth A [2]; 250 µg GK1.5, priming phase (6 days before first immunization), 95,000 Meth A cells, listed as Ccdc85cMUT): not statistically significant | effect of CD4 T cell depletion on tumor rejection (Meth A [2]; 250 µg GK1.5, priming phase (6 days before first immunization), 95,000 Meth A cells, listed as Ccdc85c^MUT): did not lead to reproducible and statistically significant abrogation of tumor rejection | effect of CD4 T cell depletion on tumor rejection (Meth A [2]; depletion throughout the entire experiment including the effector phase): did not lead to reproducible and statistically significant abrogation of tumor rejection | tumor rejection (in words) (Meth A [3]; BALB/cJ mice immunized twice, CTLA4 blockade): potent tumor rejection or control in all mice | Tumor rejection score (TRS) (Meth A [3]; BALB/cJ mice, BMDCs pulsed with 40 µg peptide, two immunizations one week apart, CTLA4 blockade (9D9), scale 0 (no rejection) to 5 (100% of mice)): 5.0
